Measured values reported in patent US7759345B2, “Antitumoral derivatives of ET-743” (priority 2001, dated 2010).
Like-named read-outs stand apart in the source and are kept apart here.

Experiments:
DU-145 = assay: Inhibition of cell growth by counting cells, DU-145; format: cell-based, human; conditions: Homo sapiens, DU-145, 72 h, read-out: IC50 (molar) DU-145
Description: 1°.—Inhibition of Cell Growth by Counting Cells.
This form of the assay employs 24 well multidishes of 16 mm diameter (Bergeron, 1984; Schroeder, 1981). The tumor cell lines employed are: P-388 (ATCC CCL 46), suspension culture of a lymphoid neoplasm from a DBA/2 mouse; A-549 (ATCC CCL 185), monolayer culture of a human lung carcinoma; HT-29 (ATCC HTB-38), monolayer culture of a human colon carcinoma; MEL-28 (ATCC HTB-72), monolayer culture of a human melanoma and DU-145 (ATCC HTB-81), monolayer culture of a human prostate carcinoma.
Cells were maintained, in logarithmic phase of growth in Eagle's Minimum Essential Medium, with Earle's Balanced Salts, with non-essential amino acids, with 2.0 mM L-Glutamine, without sodium bicarbonate (EMEM/neaa), supplemented with 10% Fetal Calf Serum (FCS), 10^−2 M. sodium bicarbonate and 0.1 U/l penicillin G+0.1 g/l streptomycin sulfate. For the experiments, cells are harvested from subconfluent cultures using trypsin and resuspended in fresh medium before plating.
A-549, HT-29, MEL-28 and DU-145 cells were seeded into 16 mm diameter wells at 1×10^4 cells per well in 1 ml aliquots of EMEM 5% FCS containing different concentrations of the sample to be tested. A separate set of cultures without drug was seeded as control of growth, to ensure that cells remained in exponential phase of growth. All determinations are carrying out in duplicate. After three days of incubation at 37° C., 5% CO2 in a 98% humid atmosphere cells were stained with 0.1% crystal violet. An approximately IC50 was determined by comparing the growth in wells with drug to the growth in wells control.
For quantifying the activity, after the incubation time, cells are trypsinized and counted in a Coulter Counter ZM. All counts (net cells per well), represent the average of duplicate wells. % G, percent of growth relative to cultures without drug. The results of these assays are used to generate dose-response curves from which more precise IC50 values are determined (sample concentration which produces 50% cell growth inhibition).
Obtained results may predict the usefulness of a certain drug as a potential cancer treatment. For this technique, compounds which show IC50 values smaller than 1 μg/ml are selected to continue with further studies. IC50's data allow to predict that not only could a drug be cystostatic, but also it could have a potential in terms of tumor reduction.

A-549 = assay: Inhibition of cell growth by counting cells, A-549; format: cell-based, human; conditions: Homo sapiens, A549, 72 h; three days of incubation; read-out: IC50 (molar) A-549
In short: (§1)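 Cells were seeded at 1×10^4 per well in EMEM with 5% FCS containing test sample and incubated 3 days at 37 °C, 5% CO2, in duplicate. Cells were then trypsinized and Coulter-counted, and growth was expressed relative to drug-free controls. IC50 (50% growth inhibition) was taken from dose-response curves.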

P-388 = assay: Inhibition of cell growth by counting cells, P-388; format: cell-based, mouse; conditions: Mus musculus, P388, 72 h; three days of incubation; read-out: IC50 (molar) P-388
In short: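 Mouse P-388 lymphoid neoplasm suspension cells seeded at 1×10^4 cells/well in EMEM 5% FCS containing graded sample concentrations, in duplicate alongside drug-free growth controls. Cells counted by Coulter counter; % growth vs untreated gives dose-response curves, IC50 = concentration producing 50% growth inhibition.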

MEL-28 = assay: Inhibition of cell growth by counting cells, MEL-28; format: cell-based, human; conditions: Homo sapiens, SK-MEL-28, 72 h; three days of incubation; read-out: IC50 (molar) MEL-28
In short: as §1

HT-29 = assay: Inhibition of cell growth by counting cells, HT-29; format: cell-based, human; conditions: Homo sapiens, HT-29, 72 h; three days of incubation; read-out: IC50 (molar) HT-29
In short: as §1

Structure (SMILES)	IC50 (DU-145; three days of incubation) [nM]	IC50 (A-549) [nM]	IC50 (P-388) [nM]	IC50 (MEL-28) [nM]	IC50 (HT-29) [nM]	IC50 (DU-145) [nM]
CCCCCCCCCCCCCCCC(=O)Oc1cc2c(cc1OC)[C@@]1(CS[C@@H]3c4c(OC(C)=O)c(C)c5c(c4[C@H](COC1=O)N1C3[C@H]3c4c(cc(C)c(OC)c4OC(=O)CCCCCCCCCCCCCCC)C[C@@H]([C@@H]1O)N3C)OCO5)NCC2 (stereo partly shown) [Compound 83]	80.8	80.8	80.8	80.8	80.8	–
CCOc1cc2c(cc1OC)[C@@]1(CS[C@@H]3c4c(OC(C)=O)c(C)c5c(c4[C@H](COC1=O)N1C3[C@H]3c4c(cc(C)c(OC)c4OCC)C[C@@H]([C@@H]1O)N3C)OCO5)NCC2 (stereo partly shown) [Compound 88]	12.2	12.2	12.2	12.2	12.2	–
CCCOc1cc2c(cc1OC)[C@@]1(CS[C@@H]3c4c(OC(C)=O)c(C)c5c(c4[C@H](COC1=O)N1C3[C@H]3c4c(cc(C)c(OC)c4OCCC)C[C@@H]([C@@H]1O)N3C)OCO5)NCC2 (stereo partly shown) [Compound 89]	591	591	591	591	591	–
C=CCOc1cc2c(cc1OC)[C@@]1(CS[C@@H]3c4c(OC(C)=O)c(C)c5c(c4[C@H](COC1=O)N1C3[C@H]3c4c(cc(C)c(OC)c4OCC=C)C[C@@H]([C@@H]1O)N3C)OCO5)NCC2 (stereo partly shown) [Compound 90]	11.9	11.9	11.9	11.9	11.9	–
COc1cc2c(cc1OCc1ccccc1)CCN[C@]21CS[C@@H]2c3c(OC(C)=O)c(C)c4c(c3[C@H](COC1=O)N1C2[C@H]2c3c(cc(C)c(OC)c3OCc3ccccc3)C[C@@H]([C@@H]1O)N2C)OCO4 (stereo partly shown) [Compound 91]	106	106	106	106	106	–
COc1cc2c(cc1OC(=O)OC(C)(C)C)CCN[C@]21CS[C@@H]2c3c(O)c(C)c4c(c3[C@H](COC1=O)N1C2[C@H]2c3c(cc(C)c(OC)c3O)C[C@@H]([C@@H]1C#N)N2C)OCO4 (stereo partly shown) [Compound 106]	1.21	1.21	1.21	1.21	1.21	–
COc1cc2c(cc1OC(=O)OC(C)(C)C)CCN[C@]21CS[C@@H]2c3c(OC(=O)C(F)(F)F)c(C)c4c(c3[C@H](COC1=O)N1C2[C@H]2c3c(cc(C)c(OC)c3O)C[C@@H]([C@@H]1C#N)N2C)OCO4 (stereo partly shown) [Compound 107]	1.08	1.08	1.08	1.08	1.08	–
CCCC(=O)Oc1c(C)c2c(c3c1[C@H]1SC[C@]4(NCCc5cc(OC(=O)OC(C)(C)C)c(OC)cc54)C(=O)OC[C@@H]3N3C1[C@H]1c4c(cc(C)c(OC)c4O)C[C@@H]([C@@H]3C#N)N1C)OCO2 (stereo partly shown) [Compound 111]	–	1.11	1.11	1.11	1.11	1.11
COc1cc2c(cc1OC(=O)OC(C)(C)C)CCN[C@]21CS[C@@H]2c3c(OC(=O)/C=C/c4ccccc4)c(C)c4c(c3[C@H](COC1=O)N1C2[C@H]2c3c(cc(C)c(OC)c3O)C[C@@H]([C@@H]1C#N)N2C)OCO4 (stereo partly shown) [Compound 113]	10.4	10.4	10.4	10.4	10.4	–
CCCCCCCC(=O)Oc1c(C)c2c(c3c1[C@H]1SC[C@]4(NCCc5cc(OC(=O)OC(C)(C)C)c(OC)cc54)C(=O)OC[C@@H]3N3C1[C@H]1c4c(cc(C)c(OC)c4O)C[C@@H]([C@@H]3C#N)N1C)OCO2 (stereo partly shown) [Compound 119]	10.5	10.5	10.5	10.5	10.5	–
CCCCCCCC(=O)Oc1c(C)c2c(c3c1[C@H]1SC[C@]4(NCCc5cc(OC(=O)OC(C)(C)C)c(OC)cc54)C(=O)OC[C@@H]3N3C1[C@H]1c4c(cc(C)c(OC)c4OC(=O)CCCCCCC)C[C@@H]([C@@H]3C#N)N1C)OCO2 (stereo partly shown) [Compound 120]	463	463	463	463	463	–
